Assays:
[1] = biological target: T1, Amine oxidase [flavin-containing] B (Homo sapiens, UniProt P27338); assay: Inhibition of human recombinant MAOB expressed in Pichia pastoris
T1 sequence (P27338 whole entry): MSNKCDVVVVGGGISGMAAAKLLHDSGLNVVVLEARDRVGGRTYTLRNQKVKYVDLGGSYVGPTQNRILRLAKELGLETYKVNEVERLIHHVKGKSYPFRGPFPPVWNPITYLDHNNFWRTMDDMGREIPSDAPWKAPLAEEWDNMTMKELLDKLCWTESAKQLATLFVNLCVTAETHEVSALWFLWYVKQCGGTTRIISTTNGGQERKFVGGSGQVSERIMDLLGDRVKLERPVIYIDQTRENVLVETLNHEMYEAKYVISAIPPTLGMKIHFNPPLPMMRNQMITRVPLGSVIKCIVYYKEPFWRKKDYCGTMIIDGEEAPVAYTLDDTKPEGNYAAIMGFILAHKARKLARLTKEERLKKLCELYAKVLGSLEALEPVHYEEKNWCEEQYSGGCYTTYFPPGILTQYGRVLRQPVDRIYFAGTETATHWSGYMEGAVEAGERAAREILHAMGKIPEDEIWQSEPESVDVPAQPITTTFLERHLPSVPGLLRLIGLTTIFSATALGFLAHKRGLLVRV

[2] = biological target: T2, Amine oxidase [flavin-containing] A (Homo sapiens, UniProt P21397); assay: Inhibition of human recombinant MAOA expressed in Pichia pastoris
T2 sequence (P21397 whole entry): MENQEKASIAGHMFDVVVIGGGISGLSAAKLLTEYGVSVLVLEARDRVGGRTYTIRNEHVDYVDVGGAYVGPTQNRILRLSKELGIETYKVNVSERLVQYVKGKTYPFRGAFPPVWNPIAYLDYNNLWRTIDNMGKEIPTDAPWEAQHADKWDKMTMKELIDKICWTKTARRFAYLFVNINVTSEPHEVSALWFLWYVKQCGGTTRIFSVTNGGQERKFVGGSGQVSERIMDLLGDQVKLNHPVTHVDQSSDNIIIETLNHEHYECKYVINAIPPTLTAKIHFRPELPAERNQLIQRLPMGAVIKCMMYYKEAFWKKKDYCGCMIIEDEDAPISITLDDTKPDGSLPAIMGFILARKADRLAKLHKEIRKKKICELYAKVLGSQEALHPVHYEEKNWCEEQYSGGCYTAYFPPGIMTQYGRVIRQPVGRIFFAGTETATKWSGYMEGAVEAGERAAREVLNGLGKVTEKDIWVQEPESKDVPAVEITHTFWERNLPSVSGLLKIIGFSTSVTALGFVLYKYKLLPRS

SMILES	Ki [1] [µM]	Ki [2] [µM]
O=Cc1cc(=O)oc2cc(OCc3cccc(Cl)c3)ccc12	0.4	11
CNCc1cc(=O)oc2cc(OCc3cccc(Cl)c3)ccc12	0.1	15.7

Source: ChEMBL document CHEMBL1137571 (J Med Chem, 2007)
